This is an account of results in patent publication US20220279826A1, “OFF-FLAVOR SUPPRESSING AGENT” (AJINOMOTO CO., INC., priority 2019, published 2022).

A short description of assay [1]: Sensory evaluation in chicken broth solution with potassium chloride (Experimental Example 3). The conditions noted are these: chicken broth solution with 0.8 wt % potassium chloride. As to the method:
(§1) As shown in the following (1) to (3) below, 0.8 wt % of potassium chloride was added to a food base powder corresponding to 0.5 wt % of sodium chloride to prepare each base solution having an off-taste derived from potassium chloride.
Potassium chloride (0.8 g) was added to a commercially available powdered chicken broth mix (manufactured by Ajinomoto Co., Inc., trade name “Marutorigara Soup”) (1.0 g), hot water (98.2 g) was added to dissolve the mixture to prepare a base solution (chicken broth soup solution).
(§2) Each compound shown in the following Tables 15 to 17 was added to each base solution (ramen noodle soup solution, chicken broth solution, potage solution) so as to achieve the concentration (addition concentration) shown in the following Tables 15 to 17 to prepare each evaluation sample.
(§3) By a method similar to that in Experimental Example 1, a panel of two experts determined the intensity of off-tastes (bitter taste, metallic taste, harsh taste, astringent taste) derived from potassium chloride in each evaluation sample.

Assay [2] can be described thus: Sensory evaluation in potage solution with potassium chloride (Experimental Example 3). To be noted: Potage solution with 0.8 wt % potassium chloride. As to the method:
as §1
Potassium chloride (0.8 g) was added to a commercially available powdered instant potage (manufactured by Ajinomoto Co., Inc., trade name “Knorr (registered trade mark) Cup Soup Potage”) (7.1 g), hot water (92.1 g) was added to dissolve the mixture to prepare a base solution (potage solution).
as §2, §3

The nature of assay [3]: Sensory evaluation in Japanese noodle soup base solution with potassium chloride (0.2 g) (Experimental Example 5). To be noted: for off-taste suppressing effect: Japanese noodle soup base solution, potassium chloride 0.2 g; for intensity of off-tastes (bitter taste, metallic taste, harsh taste, astringent taste) derived from potassium chloride: base solution of Table 19. As to the method:
Potassium chloride (0.2 g) was added to a commercially available Japanese noodle soup base (manufactured by Yamaki Co., Ltd.) (11.1 g), and dissolved by adding hot water (88.7 g) to prepare a base solution.
Each compound shown in the following Table 19 was added to the base solution prepared above so as to achieve the concentration (addition concentration) shown in the following Table 19 to prepare each evaluation sample.
Based on the following evaluation criteria, a panel of two experts determined by consensus the intensity of off-tastes (bitter taste, metallic taste, harsh taste, astringent taste) derived from potassium chloride in each evaluation sample, by reference to each potassium chloride aqueous solution adjusted to 0.2 wt %, 0.15 wt % or 0.1 wt %.

Assay [4] in a line: Sensory evaluation in pea protein aqueous solution (Experimental Example 8). To be noted: text summary of Table 22. As to the method: Each compound shown in the following Table 22 was added to an aqueous solution prepared by dissolving powdered pea protein (6 parts by weight) and granulated sugar (4 parts by weight) in ion exchange water (90 parts by weight) (hereinafter at times referred to as pea protein aqueous solution) so as to achieve the concentration (addition concentration) shown in the following Table 22 to prepare each evaluation sample. Here, the powdered pea protein manufactured by Cosucra was used.
Based on the following evaluation criteria, a panel of four experts determined by consensus the intensity of off-tastes (bitter taste, harsh taste, astringent taste) derived from pea protein in each evaluation sample, by comparison with a pea protein aqueous solution without addition of any compound (negative control).

Assay [5] can be described thus: Sensory evaluation in 0.15 wt % catechin aqueous solution (Experimental Example 9). To be noted: summary of Table 23. As to the method:
Each compound shown in the following Table 23 was added to a 0.15 wt % catechin aqueous solution (an aqueous solution prepared by dissolving catechin (0.15 parts by weight) in ion exchange water (99.85 parts by weight)) so as to achieve the concentration (addition concentration) shown in the following Table 23 to prepare each evaluation sample.
Based on the following evaluation criteria, a panel of four experts determined by consensus the intensity of off-tastes (bitter taste, rough taste, harsh taste) derived from catechin in each evaluation sample, by comparison with a 0.15 wt % catechin aqueous solution without addition of any compound (negative control).

Assay [6] can be described thus: Sensory evaluation in 0.06 wt % acesulfame potassium aqueous solution (Experimental Example 10). To be noted: summary of Table 24. As to the method:
Each compound shown in the following Table 24 was added to a 0.06 wt % acesulfame potassium aqueous solution (an aqueous solution prepared by dissolving acesulfame potassium (0.06 parts by weight) in water (99.94 parts by weight)) so as to achieve the concentration (addition concentration) shown in the following Table 24 to prepare each evaluation sample.
Based on the following evaluation criteria, a panel of four experts determined by consensus the intensity of off-tastes (bitter taste) derived from acesulfame potassium in each evaluation sample, by comparison with a 0.06 wt % acesulfame potassium aqueous solution without addition of any compound (negative control).

The nature of assay [7]: Sensory evaluation in granular soy protein (Experimental Example 14). To be noted: text summary of Table 28. As to the method:
Each compound shown in the following Table 28 was added to granular soy protein (manufactured by FUJI OIL CO., LTD.) so as to achieve the concentration (addition concentration) shown in the following Table 28 to prepare each evaluation sample.
Based on the following evaluation criteria, a panel of four experts determined by consensus the intensity of off-tastes (bitter taste, harsh taste, astringent taste) derived from soy protein in each evaluation sample, by comparison with granular soy protein without addition of any compound (negative control).

Assay [8] can be described thus: Sensory evaluation in 1.5 wt % disodium phosphate aqueous solution (Experimental Example 19). To be noted: Table 34. As to the method: Each compound shown in the following Table 34 was added to a 1.5 wt % disodium phosphate aqueous solution (aqueous solution prepared by dissolving disodium phosphate (1.5 parts by weight) in water (98.5 parts by weight)) so as to achieve the concentration (addition concentration) shown in the following Table 34 to prepare each evaluation sample.
Based on the following evaluation criteria, a panel of four experts determined by consensus the intensity of off-tastes (bitter taste, harsh taste, astringent taste) derived from disodium phosphate in each evaluation sample, by comparison with a 1.5 wt % disodium phosphate aqueous solution without addition of any compound (negative control).

Assay [9] can be described thus: Sensory evaluation in 1 wt % methyl cellulose aqueous solution (Experimental Example 20). The conditions noted are these: Table 35. As to the method:
Each compound shown in the following Table 35 was added to a 1 wt % methyl cellulose aqueous solution (aqueous solution prepared by dissolving methyl cellulose (1 part by weight) in water (99 parts by weight)) so as to achieve the concentration (addition concentration) shown in the following Table 35 to prepare each evaluation sample. Here, the methyl cellulose manufactured by Unitec Foods Co., Ltd. was used.
Based on the following evaluation criteria, a panel of four experts determined by consensus the intensity of off-tastes (bitter taste, harsh taste, astringent taste) derived from methyl cellulose in each evaluation sample, by comparison with a 1 wt % methyl cellulose aqueous solution without addition of any compound (negative control).

Setting [10] is: addition concentration 10 ppb (1.25 weight ppm with respect to potassium chloride).
The mark [11] stands for this setting: addition concentration 100 weight ppb (50 weight ppm with respect to potassium chloride).
The mark [12] stands for this setting: addition concentration 100 ppb (12.5 weight ppm with respect to potassium chloride).

`O=Cc1ccco1` [furfural, Furfural]: the off-taste suppressing effect entry in assay [1] (setting [10]) is “+++ (intensity of the same level as potassium chloride aqueous solution with potassium chloride concentration of not less than 0.65 wt % and less than 0.7 wt %)”; in [2] (setting [10]), “++ (intensity of the same level as potassium chloride aqueous solution with potassium chloride concentration of not less than 0.7 wt % and less than 0.75 wt %)”; in assay [3] (addition concentration 50 weight ppb (25 weight ppm with respect to potassium chloride)), “+++ (intensity of the same level as potassium chloride aqueous solution with potassium chloride concentration of less than 0.1 wt %)”. Moreover, in assay [3], the “intensity of off-tastes (bitter taste, metallic taste, harsh taste, astringent taste) derived from potassium chloride” value (from here on “intensity … from potassium chloride”) is “decreased”. In addition, the “intensity of off-tastes (bitter taste, harsh taste, astringent taste) derived from pea protein” value (“intensity of off-tastes … from pea protein” for short) in [4] is recorded as “suppressed”. In assay [5], the “intensity of off-tastes (bitter taste, rough taste, harsh taste) derived from catechin” value (“intensity of off-tastes … from catechin” for short) is listed as “suppressed”. Besides, the “intensity of off-tastes (bitter taste) derived from acesulfame potassium” value (from here on “intensity … from acesulfame potassium”) in assay [6] is on record as “suppressed”. The “intensity of off-tastes (bitter taste, harsh taste, astringent taste) derived from soy protein” value (“intensity of off-tastes … from soy protein” below) in assay [7] was “suppressed”. The “intensity of off-tastes (bitter taste, harsh taste, astringent taste) derived from disodium phosphate” value (“intensity … from disodium phosphate” below) in [8] is listed as “suppressed”. In addition, in assay [9], the “intensity of off-tastes (bitter taste, harsh taste, astringent taste) derived from methyl cellulose” value (“intensity of off-tastes … from methyl cellulose” for short) is “suppressed”.
For `CC1OCCC1=O` (centres unmarked) [2-methyltetrahydrofuran-3-one], the off-taste suppressing effect entry in assay [3] (setting [11]) was “+ (intensity of the same level as potassium chloride aqueous solution with potassium chloride concentration of not less than 0.15 wt % and less than 0.2 wt %)”. Besides, the “intensity … from potassium chloride” value in assay [3] is on record as “decreased”. The “intensity of off-tastes … from pea protein” value in assay [4] is recorded as “suppressed”. Moreover, the “intensity of off-tastes … from catechin” value in [5] is “suppressed”. In addition, the “intensity … from acesulfame potassium” value in assay [6] is “suppressed”. The “intensity of off-tastes … from soy protein” value in assay [7] is “suppressed”. The “intensity … from disodium phosphate” value in [8] is given as “suppressed”. Further, in assay [9], the “intensity of off-tastes … from methyl cellulose” value was “suppressed”.
On to `CC1=C(O)C(=O)CC1` [cyclotene], for which the off-taste suppressing effect entry in [1] (setting [10]) is “+++ (intensity of the same level as potassium chloride aqueous solution with potassium chloride concentration of not less than 0.65 wt % and less than 0.7 wt %)”; in assay [2] (setting [10]) it was “+++ (intensity of the same level as potassium chloride aqueous solution with potassium chloride concentration of not less than 0.65 wt % and less than 0.7 wt %)”; in assay [3] (addition concentration 25 weight ppb (12.5 weight ppm with respect to potassium chloride)), “+++ (intensity of the same level as potassium chloride aqueous solution with potassium chloride concentration of less than 0.1 wt %)”. In assay [3], the “intensity … from potassium chloride” value is on record as “decreased”. In addition, the “intensity of off-tastes … from pea protein” value in [4] is on record as “suppressed”. For the same compound, the “intensity of off-tastes … from catechin” value in assay [5] was “suppressed”. Also, the “intensity … from acesulfame potassium” value in assay [6] was “suppressed”. The “intensity of off-tastes … from soy protein” value in assay [7] is “suppressed”. Moreover, the “intensity … from disodium phosphate” value in assay [8] is “suppressed”. Besides, the “intensity of off-tastes … from methyl cellulose” value in [9] is “suppressed”.
For `CC(=O)c1ccco1` [2-acetylfuran], the off-taste suppressing effect result in assay [1] (setting [12]) was “++ (intensity of the same level as potassium chloride aqueous solution with potassium chloride concentration of not less than 0.7 wt % and less than 0.75 wt %)”; in [2] (setting [12]), “++ (intensity of the same level as potassium chloride aqueous solution with potassium chloride concentration of not less than 0.7 wt % and less than 0.75 wt %)”; in [3] (setting [11]), “++ (intensity of the same level as potassium chloride aqueous solution with potassium chloride concentration of not less than 0.1 wt % and less than 0.15 wt %)”. Further, in assay [3], the “intensity … from potassium chloride” value is “decreased”. Also, the “intensity of off-tastes … from pea protein” value in assay [4] is listed as “suppressed”. For the same compound, the “intensity of off-tastes … from catechin” value in [5] is recorded as “suppressed”. For the same compound, in assay [6], the “intensity … from acesulfame potassium” value was “suppressed”. Further, in [7], the “intensity of off-tastes … from soy protein” value is “suppressed”. In addition, the “intensity … from disodium phosphate” value in assay [8] was “suppressed”. Further, the “intensity of off-tastes … from methyl cellulose” value in [9] is reported as “suppressed”.
`CC(=O)c1ccc(C)o1` [2-acetyl-5-methylfuran]: the “intensity of off-tastes … from pea protein” value in assay [4] is reported as “suppressed”. In assay [5], the “intensity of off-tastes … from catechin” value is on record as “suppressed”. Besides, in [6], the “intensity … from acesulfame potassium” value is listed as “suppressed”. The “intensity of off-tastes … from soy protein” value in [7] is “suppressed”. The “intensity … from disodium phosphate” value in assay [8] is reported as “suppressed”. Besides, the “intensity of off-tastes … from methyl cellulose” value in assay [9] was “suppressed”.
